Measurements taken from article PMC10778824, “New Chalcone Derivatives Containing 2,4-Dichlorobenzenesulfonamide Moiety with Anticancer and Antioxidant Properties” (International Journal of Molecular Sciences, 2023).
Values after ≈ are worked out from the molar mass of the structure shown.

Legend:
[1] = test system: human neonatal fibroblasts; assay: MTT assay, noncancerous fibroblasts; assay type: cell-based; conditions: Homo sapiens, Fibroblast, 24 h treatment
Description: (§1) The human gastric adenocarcinoma AGS, cervical cancer HeLa, and acute promyelocytic leukemia HL-60 cells were obtained from the American Type Culture Collection (ATCC, Manassas, VA, USA). Human neonatal fibroblasts were obtained from LGC Standards (Luckenwalde, Germany). The HeLa and AGS lines were cultured in Dulbecco’s modified Eagle’s medium (DMEM) and DMEM/F12 medium, respectively. The HL-60 line was maintained in RPMI-1640 medium. Fibroblasts were cultured in Fibroblast Growth Medium with Supplement Mix. All the media were supplemented with 100 units/mL of penicillin, 100 µg/mL of streptomycin, and 10% (v/v) fetal bovine serum (FBS) (Merck Millipore, Burlington, MA, USA). The cells were incubated at 37 °C and 5% CO2.
(§2) To estimate the cytotoxic effect of the five compounds (4–8), MTT (3-(4,5-dimethylthiazol-2-yl)-2,5-diphenyltetrazolium bromide) assay was used. Oxaliplatin was used as a positive control in this test. All the cell lines were seeded in 96-well plates at a density of 5 × 10^3 cells/well and treated for 24 h with the compounds at concentrations of 0.5–40 µg/mL. Oxaliplatin was tested in the range of 20–400 µg/mL (50–1000 µM). After treatment, the cells were incubated with MTT (0.5 mg/mL; Merck Millipore, Burlington, MA, USA) for 3 h. Then, DMSO was used to dissolve formazan crystals, and the absorbance of the formazan solution was measured with a plate reader (Epoch, BioTek Instruments, Santa Clara, CA, USA). All the results (±standard deviation (SD)) were obtained from six repetitions in at least two independent experiments. The data are expressed as IC50 values (µg/mL).

[2] = test system: gastric adenocarcinoma AGS; assay: MTT assay, AGS cells; assay type: cell-based, human; conditions: for IC50: Homo sapiens, AGS, 24 h, MTT, 24 h treatment; for selectivity index AGS: SI = IC50 noncancer cells/IC50 cancer cells, in relation to human neonatal fibroblasts
Description: as §1, §2

[3] = target: T1, neutrophil elastase (Sus scrofa, UniProt P00772); assay: Elastase assay (SANA substrate); assay type: biochemical, porcine; conditions: Tris-HCl pH 8.0, SANA substrate; read-out: neutrophil elastase inhibition IC50 (converted)
T1 construct: purchased Sigma Chemical Co. (St. Louis, MO, USA)
T1 sequence (P00772 27-266): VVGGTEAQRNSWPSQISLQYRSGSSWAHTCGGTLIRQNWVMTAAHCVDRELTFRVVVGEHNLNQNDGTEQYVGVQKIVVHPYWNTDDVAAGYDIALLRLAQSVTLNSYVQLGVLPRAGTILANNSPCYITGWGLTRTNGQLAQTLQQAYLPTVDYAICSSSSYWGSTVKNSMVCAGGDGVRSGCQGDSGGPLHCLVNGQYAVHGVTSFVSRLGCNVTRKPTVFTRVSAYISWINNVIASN
Description: The elastase analysis was performed according to the spectrophotometric method with oleanolic acid as a reference. The reaction mixture (Tris-HCl buffer (pH 8.0), 1.0 μg/mL porcine pancreatic elastase, and different concentrations of chalcone derivatives was preincubated at room temperature for 15 min. Afterwards, the addition of the substrate—SANA—started the reaction. Product formation changes were analyzed at λ = 410 nm for 20 min every 20 s (Epoch, BioTek Instruments, Santa Clara, CA, USA). The control was composed of Tris-HCl buffer (pH 8.0), an appropriate concentration of the chalcone derivative, and SANA.

[4] = test system: acute promyelocytic leukemia HL-60; assay: MTT assay, HL-60 cells; assay type: cell-based, human; conditions: for IC50: Homo sapiens, HL-60, 24 h, MTT, 24 h treatment; for selectivity index HL-60: SI = IC50 noncancer cells/IC50 cancer cells, in relation to human neonatal fibroblasts
Description: as §1, §2

[5] = β-Carotene bleaching test; conditions: for protection of lipids oxidation / reduction of lipid peroxidation (in words): compared to ascorbic acid
Description: β-Carotene bleaching test was based on the method described by Olszowy et al. with some modifications. First, 1 mg of β-carotene was dissolved in 5 mL of chloroform. Afterwards, […] of linoleic acid and 200 mg of Tween 40 were added. The chloroform was evaporated, and 50 mL of oxygenized water was added. The created emulsion was mixed with different concentrations of chalcone derivatives. β-carotene bleaching was analyzed at λ = 492 nm before (t = 0 min) and after 90 min (t = 90 min) of incubation at 50 °C (Epoch, BioTek Instruments, Santa Clara, CA, USA). Ascorbic acid was used as a standard. The control was composed of emulsion and DMSO.
The results were calculated according to the following Formula (4):[(AsampleT0 − AsampleT90)/(AcontrolT0 − AcontrolT90) × 100%(4)

[6] = test system: cervical cancer HeLa; assay: MTT assay, HeLa cells; assay type: cell-based, human; conditions: for IC50: Homo sapiens, HeLa, MTT, 24 h treatment; for selectivity index HeLa: SI = IC50 noncancer cells/IC50 cancer cells, in relation to human neonatal fibroblasts
Description: as §1, §2

[7] = test system: Helicobacter pylori ATCC43504; assay: MIC determination; assay type: cell-based; conditions: 37 °C, 48 h
Description: (§3) The MIC determinations for Staphylococcus epidermidis ATCC14990, Staphylococcus aureus ATCC6538, Enterococcus faecalis ATCC51299, Klebsiella pneumoniae ATCC13883, Escherichia coli ATCC8739, Salmonella enterica ATCC13076, Helicobacter pylori ATCC43504, Campylobacter jejuni ZMF, Campylobacter coli ZMF, Bacillus cereus PCM 1948,2019 (ATCC11778), and Listeria monocytogenes PCM2191 were performed based on the methodology described by Krauze-Baranowska et al.. The procedure for H. pylori was used in the experiments with Campylobacter strains, and the procedure for B. subtilis was used in the experiments with L. monocytogenes and B. cereus. The tested samples were dissolved in DMSO and diluted with water (concentration of approximately 500 μg/mL). The solutions were diluted geometrically by transferring the mixture/dilution (100 μL) from the first to the twelfth well of the microtiter plate. The final concentrations of samples used for antimicrobial effects ranged from 500 to 0.006 µg/mL. Ampicillin was used as a reference compound in the concentration range of 128 to 0.0625 µg/mL. The tests were incubated at 37 °C for 48 h. The diluent concentration had no effect on the activity of the tested compounds. All experiments were performed in triplicate.

[8] = test system: Staphylococcus aureus ATCC6538; assay: MIC determination; assay type: cell-based; conditions: 37 °C, 48 h
Description: as §3

[9] = test system: Campylobacter coli ZMF; assay: MIC determination; assay type: cell-based; conditions: 37 °C, 48 h
Description: as §3

[10] = test system: Bacillus cereus PCM 1948,2019 (ATCC11778); assay: MIC determination; assay type: cell-based; conditions: 37 °C, 48 h
Description: as §3

[11] = test system: Escherichia coli ATCC8739; assay: MIC determination; assay type: cell-based; conditions: 37 °C, 48 h
Description: as §3

[12] = test system: Enterococcus faecalis ATCC51299; assay: MIC determination; assay type: cell-based; conditions: 37 °C, 48 h
Description: as §3

[13] = test system: Staphylococcus epidermidis ATCC14990; assay: MIC determination; assay type: cell-based; conditions: 37 °C, 48 h
Description: as §3

[14] = test system: Campylobacter jejuni ZMF; assay: MIC determination; assay type: cell-based; conditions: 37 °C, 48 h
Description: as §3

[15] = test system: Klebsiella pneumoniae ATCC13883; assay: MIC determination; assay type: cell-based; conditions: 37 °C, 48 h
Description: as §3

[16] = test system: Salmonella enterica ATCC13076; assay: MIC determination; assay type: cell-based; conditions: 37 °C, 48 h
Description: as §3

[17] = test system: Listeria monocytogenes PCM2191; assay: MIC determination; assay type: cell-based; conditions: 37 °C, 48 h
Description: as §3

[18] = test system: cancer cells (HeLa, HL-60, AGS); assay: MTT assay, cancer cells taken together; assay type: cell-based, human; conditions: HL-60 and AGS together
Description: as §1, §2

[19] = DPPH radical scavenging assay; conditions: for % of DPPH radical inhibition: concentration of 800 µg/mL
Description: The DPPH radical scavenging assay of samples (ligands or complexes) was performed with ascorbic acid as a standard. Different concentrations of chalcone derivatives, dissolved in DMSO, were mixed with the same amount of 0.06 mM DPPH methanolic solution and incubated at room temperature in the dark for 30 min. The absorbance was analyzed at λ = 517 nm using a 96-well microplate reader (Epoch, BioTek System, Winooski, VT, USA). The control was composed of DPPH and DMSO. DPPH inhibition was calculated according to the following Formula (2):DPPH Inhibition (%) = [(Acontrol − Asample)/Acontrol] × 100%(2)

[20] = test system: HCT-116 colon; design: method as in PMID 29223717; conditions: cited from earlier work
[21] = test system: 143B osteosarcoma; design: method as in PMID 29223717; conditions: cited from earlier work
[22] = test system: MCF-7 breast; design: method as in PMID 29223717; conditions: cited from earlier work
[23] = test system: hepatocellular carcinoma HepG2 cells; design: method as in PMID 32545423; conditions: cited from earlier work
[24] = ABTS radical scavenging assay
Description: The ABTS radical scavenging assay of chalcone derivatives was performed with ascorbic acid as a standard. Different concentrations of samples, dissolved in DMSO, were mixed with 170 μL of ABTS solution (2 mM ABTS diammonium salt and 3.5 mM potassium persulfate), and water was added to a final volume of 300 μL. ABTS solution with DMSO was used as a control. […] ABTS inhibition was calculated according to the following Formula (3):ABTS Inhibition (%) = [(Acontrol − Asample)/Acontrol] × 100%(3)

[25] = test system: colon cancer cells (HTC-116); design: method as in PMID 12556221; conditions: preclinical tests; cited from earlier work
[26] = test system: K-562 cells; conditions: 10 µM; cited from earlier work
[27] = target: BRAF serine–threonine kinase; design: method as in PMID 22646766; conditions: cited from earlier work

Cc1cc(S(=O)(=O)Nc2ccc(C(=O)/C=C/c3ccccc3)cc2)c(Cl)cc1Cl [Compound 4, (E)-2,4-Dichloro-N-(4-Cinnamoylphenyl)-5-Methylbenzenesulfonamide]
IC50 [1]: 32.1 ± 2.91 µg/mL (≈ 72 µM)
IC50 [2]: 1.23 ± 0.23 µg/mL (≈ 2.76 µM)
selectivity index AGS [2]: 26.14
IC50 [3]: 119000 nM
IC50 [4]: 2.37 ± 0.23 µg/mL (≈ 5.31 µM)
selectivity index HL-60 [4]: 13.57
protection of lipids oxidation / reduction of lipid peroxidation (in words) [5]: weaker properties
IC50 [6]: 9.63 ± 0.06 µg/mL (≈ 21.6 µM)
selectivity index HeLa [6]: 3.34
MIC [7]: > 500 µg/mL
MIC [8]: > 500 µg/mL
MIC [9]: > 500 µg/mL
MIC [10]: > 500 µg/mL
MIC [11]: > 500 µg/mL
MIC [12]: > 500 µg/mL
MIC [13]: > 500 µg/mL
MIC [14]: > 500 µg/mL
MIC [15]: > 500 µg/mL
MIC [16]: > 500 µg/mL
MIC [17]: > 500 µg/mL
IC50 toward cancer cells [18]: weaker activity
% of DPPH radical inhibition [19]: 19.49 ± 0.38%

Cc1cccc(S(=O)(=O)Nc2cccc(/C=C/C(=O)c3nc4ccccc4[nH]3)c2)c1 [(E)-N-{3-[3-(1H-benzo[d]imidazol-2-yl)-3-oxoprop-1-en-1-yl]phenyl}-3-methylbenzenesulfonamide]
IC50 [20]: 600 nM
IC50 [21]: 790 nM
IC50 [22]: 890 nM

COc1cc(O)cc(O)c1C(=O)/C=C/c1ccccc1 [cardamonin]
IC50 [23]: 17100 ± 592 nM

O=C1O[C@H]([C@@H](O)CO)C(O)=C1O [ascorbic acid, reference compound]
ABTS IC50 [24]: 20.43 ± 0.79 µg/mL
% of ABTS radical inhibition ([24]; concentration of 800 µg/mL): 100%
β-carotene bleaching IC50 ([5]; 90 min at 50 °C): 15.6 ± 0.65 µg/mL
DPPH IC50 [19]: 12.75 ± 0.25 µg/mL
% of DPPH radical inhibition [19]: 100%

NS(=O)(=O)c1ccc(S(=O)(=O)Nc2cccc3c(Cl)c[nH]c23)cc1 [Indisulam]
IC50 colon cancer cells (HTC-116) [25]: 0.11 µg/mL (≈ 0.285 µM)

Cc1ccc(/C=C/C(=O)c2ccc(NS(=O)(=O)c3cc(C)c(Cl)cc3Cl)cc2)cc1 [Compound 8, (E)-2,4-Dichloro-5-Methyl-N-{4-[3-(p-Tolyl)acryloyl]phenyl}benzenesulfonamide]
IC50 [1]: 27.8 ± 2.82 µg/mL (≈ 60.4 µM)
IC50 [2]: 3.6 ± 0.33 µg/mL (≈ 7.82 µM)
selectivity index AGS [2]: 7.72
IC50 [3]: 55900 nM
IC50 [4]: 2.9 ± 0.17 µg/mL (≈ 6.3 µM)
selectivity index HL-60 [4]: 9.58
protection of lipids oxidation / reduction of lipid peroxidation (in words) [5]: weaker properties
IC50 [6]: 7.96 ± 0.37 µg/mL (≈ 17.3 µM)
selectivity index HeLa [6]: 3.50
MIC [7]: > 500 µg/mL
MIC [8]: > 500 µg/mL
MIC [9]: > 500 µg/mL
MIC [10]: > 500 µg/mL
MIC [11]: > 500 µg/mL
MIC [12]: > 500 µg/mL
MIC [13]: > 500 µg/mL
MIC [14]: > 500 µg/mL
MIC [15]: > 500 µg/mL
MIC [16]: > 500 µg/mL
MIC [17]: > 500 µg/mL
IC50 toward cancer cells [18]: weaker activity
% of DPPH radical inhibition [19]: 0.32 ± 0.03%

methoxytolylacryloylbenzenesulfonamide
viability of leukemia cells [26]: less than 10%

COc1ccc(C(=O)C=Cc2ccccc2)cc1S(N)(=O)=O [5-cinnamoyl-2-methoxybenzenesulfonamide]
viability of leukemia cells [26]: less than 10%

CCCS(=O)(=O)Nc1ccc(F)c(C(=O)c2c[nH]c3ncc(-c4ccc(Cl)cc4)cc23)c1F [vemurafenib]
IC50 [27]: 31 nM
